PMC5216742, “Discovery and characterization of a novel potent type II native and mutant BCR-ABL inhibitor (CHMFL-074) for Chronic Myeloid Leukemia (CML)” (Oncotarget, 2016)

Assays:
[1] = molecular target: T1, ABL1(H396P)-phosphorylated (Homo sapiens, UniProt P00519, H396P); experiment: KinomeScan profiling; type: binding; settings: 1 µM CHMFL-074; read-out: % Control
T1 construct: purchased DiscoveRx (KinomeScan service)

P210-Q252H-BaF3 = experiment: Anti-proliferation, BaF3 isogenic cell lines; type: cell-based; settings: Mus musculus, BaF3, 72 h
Description: (§1) Retroviral constructs for fusion kinases were made based on the pMSCVpuro (Clontech) backbone. For TEL fusion vectors, the first 1 kb of human TEL gene with an artificial myristoylation sequence ([…]) was cloned into pMSCVpuro retroviral vector, followed by a 3xFLAG tag sequence and a stop codon; for BCR fusion vectors, the first 2.8 kb coding region of p210 amplified from K562 cell line was used in fusion constructs. Then the kinase domain coding sequences were inserted in-frame between TEL/BCR and 3xFLAG sequences. All mutagenesis were performed using the QuikChange Site-Directed Mutagenesis Kit (Stratagene) following the manufacturer's instructions. Retrovirus was packaged in HEK293T cells by transfecting kinase-fusion MSCV vectors together with two helper plasmids, virus supernatants were harvested 48 hours after transfection and filtered before infection. Then BaF3 cells were infected with harvested virus supernatants using spinoculation protocol and stable cell lines were obtained by puromycin selection for 48 hours. A second selection in the absence of IL-3 was performed to obtain IL-3 independent cell lines that solely depend on the introduced kinase activities for cell proliferation.
(§2) A density of 1 × 10^4 to 2.5 × 10^4 cells/mL cells were mixed with various concentrations of compounds then 100 μL suspension was added to each well and incubated for 72 hours. Cell viability was determined using the CellTiter-Glo assay (Promega, USA) or CCK-8 assay (Beboy, China). Both assays were performed according to the manufacturer instructions. For CellTiter-Glo assay, luminescence was determined in a multi-label reader (Envision, PerkinElmer, USA). […] Data were normalized to control group (DMSO). GI50 were calculated using Prism 6.0 (GraphPad Software, San Diego, CA).

Tel-PDGFRβ-BaF3 = experiment: Anti-proliferation, BaF3 isogenic cell lines; type: cell-based; settings: Mus musculus, BaF3, 72 h
Description: as §1, §2

P210-Y253F-BaF3 = experiment: Anti-proliferation, BaF3 isogenic cell lines; type: cell-based; settings: Mus musculus, BaF3, 72 h
Description: as §1, §2

P210-F317I-BaF3 = experiment: Anti-proliferation, BaF3 isogenic cell lines; type: cell-based; settings: Mus musculus, BaF3, 72 h
Description: as §1, §2

P210-H369P-BaF3 = experiment: Anti-proliferation, BaF3 isogenic cell lines; type: cell-based; settings: Mus musculus, BaF3, 72 h
Description: as §1, §2

Tel-RET-BaF3 = experiment: Anti-proliferation, BaF3 isogenic cell lines; type: cell-based; settings: Mus musculus, BaF3, 72 h
Description: as §1, §2

Tel-BLK-BaF3 = experiment: Anti-proliferation, BaF3 isogenic cell lines; type: cell-based; settings: Mus musculus, BaF3, 72 h
Description: as §1, §2

P210-T315I-BaF3 = experiment: Anti-proliferation, BaF3 isogenic cell lines; type: cell-based; settings: Mus musculus; P210-T315I-BaF3, 72 hours
Description: as §1, §2

TEL-DDR1-BaF3 = experiment: Anti-proliferation, BaF3 isogenic cell lines; type: cell-based; settings: Mus musculus; TEL-DDR1-BaF3, 72 hours
Description: as §1, §2

Tel-HCK-BaF3 = experiment: Anti-proliferation, BaF3 isogenic cell lines; type: cell-based; settings: Mus musculus, BaF3, 72 h
Description: as §1, §2

Tel-PDGFRα-BaF3 = experiment: Anti-proliferation, BaF3 isogenic cell lines; type: cell-based; settings: Mus musculus, BaF3, 72 h
Description: as §1, §2

Tel-LCK-BaF3 = experiment: Anti-proliferation, BaF3 isogenic cell lines; type: cell-based; settings: Mus musculus; Tel-LCK-BaF3, 72 hours
Description: as §1, §2

P210-F317L-BaF3 = experiment: Anti-proliferation, BaF3 isogenic cell lines; type: cell-based; settings: Mus musculus, BaF3, 72 h
Description: as §1, §2

BaF3 = experiment: Anti-proliferation, BaF3 isogenic cell lines; type: cell-based; settings: Mus musculus, BaF3, 72 h
Description: as §1, §2

[2] = molecular target: T2, ABL1(Q252H)-nonphosphorylated (Homo sapiens, UniProt P00519, Q252H); experiment: KinomeScan profiling; type: binding; settings: 1 µM CHMFL-074; read-out: % Control
T2 construct: purchased DiscoveRx (KinomeScan service)

KIT(L576P) = molecular target: T3, KIT(L576P) (Homo sapiens, UniProt P10721, L576P); experiment: KinomeScan profiling; type: binding; settings: 1 µM CHMFL-074; read-out: % Control
T3 construct: purchased DiscoveRx (KinomeScan service)

KIT(V559D) = molecular target: T4, KIT(V559D) (Homo sapiens, UniProt P10721, V559D); experiment: KinomeScan profiling; type: binding; settings: 1 µM CHMFL-074; read-out: % Control
T4 construct: purchased DiscoveRx (KinomeScan service)

[3] = test system: BCR-ABL positive CML patient primary cells; experiment: Patient primary cell proliferation assay; type: cell-based; settings: Homo sapiens, read-out: half effective inhibitory concentrations
Procedure: Mononuclear cells were isolated from CML patients or healthy donors by density-gradient centrifugation through Ficoll (Beijing Solarbio Science & Technology Co., Ltd., Beijing, China) at 400 g for 30 min, followed by two washes in 1× phosphate-buffered saline. Cells were then cultured in liquid culture (RPMI1640, supplemented with 20% FBS). All blood samples from CML patients and healthy donors were obtained through written consent under approval of the Chinese Academy of Sciences Institutional Review Board. The ethics committees approved the consent Procedure. CML primary patient cells were tested in liquid culture (RPMI1640, supplemented with 20% FBS) in the presence of different concentrations of CHMFL-074. The trypan blue exclusion assay was used for quantification of cells for seeding for before Cell-Titer Glo assays (Promega, USA). The Cell-Titer Glo assay was used for proliferation studies and carried out according to manufacturer's instructions. Cell viability is reported as percentages of control (untreated) cells.

RET(M918T) = molecular target: T5, RET(M918T) (Homo sapiens, UniProt P07949, M918T); experiment: KinomeScan profiling; type: binding; settings: 1 µM CHMFL-074; read-out: % Control
T5 construct: purchased DiscoveRx (KinomeScan service)

ABL1-nonphosphorylated = molecular target: T6, ABL1-nonphosphorylated (Homo sapiens, UniProt P00519); experiment: KinomeScan profiling; type: binding; settings: 1 µM CHMFL-074; read-out: % Control
T6 construct: purchased DiscoveRx (KinomeScan service)

DDR1 = molecular target: T7, DDR1 (Homo sapiens, UniProt Q08345); experiment: KinomeScan profiling; type: binding; settings: 1 µM CHMFL-074; read-out: % Control
T7 construct: purchased DiscoveRx (KinomeScan service)

K562 = experiment: Colony formation assay; type: cell-based; settings: Homo sapiens
Procedure: (§3) In brief, 1 mL of 3% agarose combined with 1 mL KU812, MEG01, or K562 growth media was used as the bottom agar in a 6-well plate. 800 cells in 1.7 mL growth media was combined with 0.3 ml of 3% agarose solution and plated on top of the bottom layer. Cells were maintained in a humidified 5% CO2 incubator at 37°C for 15 days, and continuously treated with serially diluted CHMFL-074 in a soft agar medium. On the 15th day, the number of colonies in each well were counted and each measurement was performed in triplicate.

MEG-01 = experiment: Colony formation assay; type: cell-based; settings: Homo sapiens
Procedure: as §3

KU812 = experiment: Colony formation assay; type: cell-based; settings: Homo sapiens
Procedure: as §3

T7 sequence (Q08345 19-913): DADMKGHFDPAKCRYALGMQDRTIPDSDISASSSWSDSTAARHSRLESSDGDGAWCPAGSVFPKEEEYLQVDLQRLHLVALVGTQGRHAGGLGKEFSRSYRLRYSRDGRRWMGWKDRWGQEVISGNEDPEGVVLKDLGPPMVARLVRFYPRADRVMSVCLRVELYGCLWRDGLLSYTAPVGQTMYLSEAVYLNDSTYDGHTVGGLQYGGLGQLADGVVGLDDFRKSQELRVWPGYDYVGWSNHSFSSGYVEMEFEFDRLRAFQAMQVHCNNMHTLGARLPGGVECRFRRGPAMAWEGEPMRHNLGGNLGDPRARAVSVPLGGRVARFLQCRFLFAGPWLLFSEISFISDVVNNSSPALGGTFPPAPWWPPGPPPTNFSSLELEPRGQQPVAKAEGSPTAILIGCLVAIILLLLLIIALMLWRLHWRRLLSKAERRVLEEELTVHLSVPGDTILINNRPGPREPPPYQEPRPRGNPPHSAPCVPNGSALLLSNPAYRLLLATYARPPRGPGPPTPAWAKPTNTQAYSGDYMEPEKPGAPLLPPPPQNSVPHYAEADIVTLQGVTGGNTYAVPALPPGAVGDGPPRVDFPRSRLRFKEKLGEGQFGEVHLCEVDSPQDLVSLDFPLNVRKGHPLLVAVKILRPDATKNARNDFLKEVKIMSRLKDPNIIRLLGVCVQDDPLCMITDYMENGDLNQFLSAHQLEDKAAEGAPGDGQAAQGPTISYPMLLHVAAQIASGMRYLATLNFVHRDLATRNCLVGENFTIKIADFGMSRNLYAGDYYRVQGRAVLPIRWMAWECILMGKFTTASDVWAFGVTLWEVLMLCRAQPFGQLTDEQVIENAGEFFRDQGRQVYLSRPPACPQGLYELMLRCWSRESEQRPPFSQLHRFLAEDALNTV
T5 sequence (P07949 29-1114 M918T): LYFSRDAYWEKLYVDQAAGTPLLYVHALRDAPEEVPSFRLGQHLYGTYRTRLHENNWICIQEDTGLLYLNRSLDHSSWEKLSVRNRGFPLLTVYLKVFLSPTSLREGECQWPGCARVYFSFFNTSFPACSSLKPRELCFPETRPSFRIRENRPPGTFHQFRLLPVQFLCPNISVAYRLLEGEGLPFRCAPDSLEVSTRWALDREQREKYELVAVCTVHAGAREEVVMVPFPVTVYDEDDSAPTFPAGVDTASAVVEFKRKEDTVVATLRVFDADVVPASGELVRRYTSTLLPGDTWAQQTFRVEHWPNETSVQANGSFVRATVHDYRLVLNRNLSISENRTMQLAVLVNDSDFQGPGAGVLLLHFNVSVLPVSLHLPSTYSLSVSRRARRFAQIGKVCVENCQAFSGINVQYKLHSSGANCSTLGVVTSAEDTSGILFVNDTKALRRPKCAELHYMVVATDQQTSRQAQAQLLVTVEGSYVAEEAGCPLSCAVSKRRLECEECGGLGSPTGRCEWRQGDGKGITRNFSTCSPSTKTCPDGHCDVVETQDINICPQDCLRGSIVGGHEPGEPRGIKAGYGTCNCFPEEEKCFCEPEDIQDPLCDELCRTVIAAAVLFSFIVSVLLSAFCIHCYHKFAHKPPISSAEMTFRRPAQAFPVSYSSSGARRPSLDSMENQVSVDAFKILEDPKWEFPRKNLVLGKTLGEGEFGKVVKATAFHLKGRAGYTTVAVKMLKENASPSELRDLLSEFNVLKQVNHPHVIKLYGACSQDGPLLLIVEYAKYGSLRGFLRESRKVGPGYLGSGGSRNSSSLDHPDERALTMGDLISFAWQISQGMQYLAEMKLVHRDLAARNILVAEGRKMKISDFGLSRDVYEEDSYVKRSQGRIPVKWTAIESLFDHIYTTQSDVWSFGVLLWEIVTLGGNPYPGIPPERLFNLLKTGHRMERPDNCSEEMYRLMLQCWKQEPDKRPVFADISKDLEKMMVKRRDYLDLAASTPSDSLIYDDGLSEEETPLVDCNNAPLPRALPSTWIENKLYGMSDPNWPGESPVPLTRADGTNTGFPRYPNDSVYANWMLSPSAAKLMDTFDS
T3 sequence (P10721 26-976 L576P): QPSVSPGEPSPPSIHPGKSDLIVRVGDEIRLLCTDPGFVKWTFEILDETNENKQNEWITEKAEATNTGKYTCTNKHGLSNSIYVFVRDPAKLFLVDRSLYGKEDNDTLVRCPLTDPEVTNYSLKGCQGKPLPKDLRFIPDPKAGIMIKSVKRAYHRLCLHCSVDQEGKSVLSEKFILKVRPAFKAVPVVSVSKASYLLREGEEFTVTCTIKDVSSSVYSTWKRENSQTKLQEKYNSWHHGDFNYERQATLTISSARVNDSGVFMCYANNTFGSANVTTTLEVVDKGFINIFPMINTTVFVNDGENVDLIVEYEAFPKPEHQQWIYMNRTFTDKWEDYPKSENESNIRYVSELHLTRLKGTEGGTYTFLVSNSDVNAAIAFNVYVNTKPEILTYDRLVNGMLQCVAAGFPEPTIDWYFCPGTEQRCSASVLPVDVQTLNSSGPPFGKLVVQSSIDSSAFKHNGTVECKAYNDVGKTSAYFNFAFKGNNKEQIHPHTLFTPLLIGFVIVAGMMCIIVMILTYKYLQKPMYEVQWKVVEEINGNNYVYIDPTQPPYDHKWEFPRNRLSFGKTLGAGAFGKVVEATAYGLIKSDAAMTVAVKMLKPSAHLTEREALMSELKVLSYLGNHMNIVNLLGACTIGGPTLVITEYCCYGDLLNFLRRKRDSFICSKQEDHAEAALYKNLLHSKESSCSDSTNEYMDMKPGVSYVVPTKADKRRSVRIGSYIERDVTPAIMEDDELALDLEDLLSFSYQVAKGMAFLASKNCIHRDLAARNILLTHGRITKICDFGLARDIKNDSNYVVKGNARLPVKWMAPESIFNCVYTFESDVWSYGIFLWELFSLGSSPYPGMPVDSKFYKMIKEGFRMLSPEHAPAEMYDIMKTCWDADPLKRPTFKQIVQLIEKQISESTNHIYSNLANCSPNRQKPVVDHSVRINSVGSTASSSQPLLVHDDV
T4 sequence (P10721 26-976 V559D): as the sequence (P10721 26-976 L576P) above, with V534D, P551L counted along it

Cc1ccc(NC(=O)c2ccc(CN3CCN(C)CC3)c(C(F)(F)F)c2)cc1OC1CCN(C(=O)c2cccnc2)CC1 [CHMFL-074]
remaining binding at 1 µM [1]: 0.3% | GI50 (P210-Q252H-BaF3): 118 nM | GI50 (Tel-PDGFRβ-BaF3): 52 nM | GI50 (P210-Y253F-BaF3): 338 nM | GI50 (P210-F317I-BaF3): 355 nM | GI50 (P210-H369P-BaF3): 1040 nM | GI50 (Tel-RET-BaF3): 630 nM | GI50 (Tel-BLK-BaF3): 2860 nM | GI50 (P210-T315I-BaF3): > 10000 nM | GI50 (TEL-DDR1-BaF3): 3520 nM | GI50 (Tel-HCK-BaF3): > 10000 nM | GI50 (Tel-PDGFRα-BaF3): 95 nM | GI50 (Tel-LCK-BaF3): 2020 nM | GI50 (P210-F317L-BaF3): 218 nM | GI50 (BaF3): > 10000 nM | remaining binding at 1 µM [2]: 0.75% | remaining binding at 1 µM (KIT(L576P)): 1% | remaining binding at 1 µM (KIT(V559D)): 0.45% | IC50 [3]: 300 to 1000 nM | remaining binding at 1 µM (RET(M918T)): 0.15% | remaining binding at 1 µM (ABL1-nonphosphorylated): 0.25% | remaining binding at 1 µM (DDR1): < 1% | EC50 (K562; 360 h, K562, soft agar, 15 days): 4 nM | IC50 (K562; K562, read-out: anti-colony formation IC50): 4 nM | EC50 (MEG-01; 360 h, MEG-01, soft agar, 15 days): 12 nM | IC50 (MEG-01; MEG-01, read-out: anti-colony formation IC50): 12 nM | EC50 (KU812; 360 h, KU812, soft agar, 15 days): 8 nM | IC50 (KU812; KU812, read-out: anti-colony formation IC50): 8 nM
